# According to US20080027129A1 (L'OREAL, priority 2006, published 2008):
# Read-outs that look alike come from different tables or passages of the source.
# How the values were obtained:
# [1] = test system: normal human melanocytes (NHM); experiment: reactive oxygen species (ROS) generated by an H2O2 stress in cultured normal human melanocytes; assay type: cell-based; conditions: NHM pretreated 12 h/18 h with compound, H2DCFDA 10 μM, H2O2 250 μM, read after 15 minutes; FIG. 1
# Description: Protocol for measuring the reactive oxygen species (ROS) generated by an H2O2 stress in cultured normal human melanocytes (NHM)
# The normal human melanocytes (NHMs) were inoculated at D0 at the density of 4×10^4 cells/cm^2. […] After 20 minutes, the H2DCFDA solution was replaced with the culture medium. The NHMs were left for 30 minutes before adding the H2O2 solution (250 μM). The fluorescence was measured after 15 minutes in a fluoroscan (excitation: 485 nm, emission: 538 nm).
# The compounds studied were used depending on their properties (concentration, preincubation time). N-Acetylcysteine (A9165-Sigma) was used as a reference molecule. The melanocytes were pretreated, 12 h/18 h at 37° C., with the compound studied in the culture medium, before being brought into contact for 20 minutes with H2DCFDA (10 μM in PBS). The H2DCFDA solution was then replaced with the culture medium containing the active agent studied. After incubating for 30 minutes the oxidative stress was induced by addition of 250 μM of H2O2 in the culture medium. The fluorescence was measured after 15 minutes in a fluoroscan (excitation: 485 nm, emission: 538 nm).
# The results represent the crude fluorescence data, from which the auto-fluorescence values of “blank” cells, expressed in fluorescence units (fu), obtained during a representative experiment, have been deducted, see FIG. 1.
# GSH = conditions: described in the literature; cited from earlier work
# [2] = test system: normal human melanocytes (NHMs); experiment: viability of cultured normal human melanocytes after a dopamine stress (Alamar Blue); assay type: cell-based; parameters: cell viability after dopamine stress: scale not given here; conditions: for viability at 200 µM: Homo sapiens, Melanocyte, compound 200 μM, read-out: cell viability after dopamine stress; for viability at 200 µM / cell viability after dopamine stress: D3, Alamar Blue
# Description: 1-C-1. Effect of 3H-1,2-dithiole-3-thione (D3T) on the Viability of Cultured Normal Human Melanocytes (NHMs) After a Dopamine Stress:
# The normal human melanocytes (NHMs) were inoculated at DO at the density of 1×10^4 cells/cm^2. After adhesion of the cells (3 h), the active agent studied was added to the culture medium. After 2 hours, the dopamine was added to the culture medium to begin the stress. At D3, the cell viability was measured using Alamar Blue (UP669413 UPTIMA, Interchim) according to the instructions of the supplier.
molecule,measurement,setting,value
"S=c1ccss1 [D3T, 3H-1,2-dithiole-3-thione]","reactive oxygen species (ROS) induced by H2O2, fluorescence",[1],decrease of the reactive oxygen species
same,level of GSH,GSH,increasing the level of GSH
"CC(=O)N[C@@H](CS)C(=O)O [NAC, N-Acetylcysteine, reference compound]",viability at 200 µM,[2]; dopamine 0.00 μM,100%
same,viability at 200 µM,[2]; dopamine 20.00 μM,102%
same,viability at 200 µM,[2]; dopamine 40.00 μM,102%
same,viability at 200 µM,[2]; dopamine 60.00 μM,99.7%
same,viability at 200 µM,[2]; dopamine 70.00 μM,95.7%
same,viability at 200 µM,[2]; dopamine 80.00 μM,89.4%
same,viability at 200 µM,[2]; dopamine 90.00 μM,77.7%
same,viability at 200 µM,[2]; dopamine 100.00 μM,23.8%
C=CCN=C=S [allyl isothiocyanate],level of GSH,GSH,increasing the level of GSH
S=C=NCCc1ccccc1 [phenethyl isothiocyanate],level of GSH,GSH,increasing the level of GSH
C[S@@+]([O-])CCCCN=C=S [sulforaphane],level of GSH,GSH,increasing the level of GSH
anethole dithiolethione [ADT],"reactive oxygen species (ROS) induced by H2O2, fluorescence",[1],decrease of the reactive oxygen species
same,survival of the cells under dopamine stress compared with the reference compound,"[2]; FIG. 3, versus N-acetylcysteine",increases the survival of the cells with a better efficiency than N-acetylcysteine
same,cell viability after dopamine stress,"[2]; compound 2 μM, dopamine 0.00 μM",100.00
same,cell viability after dopamine stress,"[2]; compound 2 μM, dopamine 20.00 μM",97.48
same,cell viability after dopamine stress,"[2]; compound 2 μM, dopamine 40.00 μM",100.00
same,cell viability after dopamine stress,"[2]; compound 2 μM, dopamine 60.00 μM",98.74
same,cell viability after dopamine stress,"[2]; compound 2 μM, dopamine 70.00 μM",95.90
same,cell viability after dopamine stress,"[2]; compound 2 μM, dopamine 80.00 μM",92.43
same,cell viability after dopamine stress,"[2]; compound 2 μM, dopamine 90.00 μM",82.02
same,cell viability after dopamine stress,"[2]; compound 2 μM, dopamine 100.00 μM",51.42
same,cell viability after dopamine stress,"[2]; compound 15 μM, dopamine 0.00 μM",100.00
same,cell viability after dopamine stress,"[2]; compound 15 μM, dopamine 20.00 μM",92.68
same,cell viability after dopamine stress,"[2]; compound 15 μM, dopamine 40.00 μM",95.22
same,cell viability after dopamine stress,"[2]; compound 15 μM, dopamine 60.00 μM",95.54
same,cell viability after dopamine stress,"[2]; compound 15 μM, dopamine 70.00 μM",94.90
same,cell viability after dopamine stress,"[2]; compound 15 μM, dopamine 80.00 μM",94.90
same,cell viability after dopamine stress,"[2]; compound 15 μM, dopamine 90.00 μM",87.58
same,cell viability after dopamine stress,"[2]; compound 15 μM, dopamine 100.00 μM",81.21
same,level of GSH,GSH,increasing the level of GSH
